# From US8039492B2, “Substituted cyclic compound, its preparation process and its medical use” (Shanghai Institute of Materia Medica, Chinese Academy of …, priority 2005, dated 2011)
# Legend:
# [1] = tested on: HEK 293/GLP-1R+Luc cells; assay: Cytotoxicity noted in the reporter gene test; assay type: cell-based, human; settings: 6 h
# From the text: GLP-1R is a G-protein coupling receptor. When GLP-1R binds to an agonist, the Ga subunit of G protein is activated to stimulate adenylate cyclase, which leads to the increase in the concentration of intracellular cAMP. Since the promoter region of proinsulin gene has a cAMP response element, cAMP promotes, after binding to this response element, the transcription of the proinsulin gene, thereby stimulating the expression and secretion of insulin (Diabetes, 2000, Vol. 49: 1156-1164). The experimental method employs a human embryonal nephric cell strain (HEK 293) which is stably transfected with the expression vector of GLP-1R gene and the expression vector of luciferase reporter gene under the regulation of cAMP response element, to detect its response to the candidate compound (Cell Biology, 1992, Vol. 89: 8641-8645; Proc. Natl. Acad. Sci. U.S.A. 1987, Vol. 84: 3434-3438). […]
# HEK 293/GLP-1R+Luc cells were inoculated, in a quantity of 20,000/100 μl/well, into a 96-well culture plate, and cultured at 37° C. overnight with a DMEM culture medium containing 10% fetal bovine serum and 500 μg/ml G418. […] Thereafter, the activity of luciferase was detected according to the specification in the kit of Steady-Glo™ luciferase analytic system, and the reading was performed by using a Victor^2 plate-reading machine.
# [2] = biological target: T1, GLP-1R (Rattus norvegicus, UniProt P32301); assay: Determination of the concentration of intracellular cAMP (CatchPoint Cyclic AMP kit) in HEK 293/GLP-1R+Luc cells; assay type: cell-based; settings: 10 min
# T1 construct: expressed in transfected cells; host or cells: HEK 293 (human embryonic kidney), stably transfected; self-made by National New Drugs Screening Center
# T1 sequence (P32301 22-463): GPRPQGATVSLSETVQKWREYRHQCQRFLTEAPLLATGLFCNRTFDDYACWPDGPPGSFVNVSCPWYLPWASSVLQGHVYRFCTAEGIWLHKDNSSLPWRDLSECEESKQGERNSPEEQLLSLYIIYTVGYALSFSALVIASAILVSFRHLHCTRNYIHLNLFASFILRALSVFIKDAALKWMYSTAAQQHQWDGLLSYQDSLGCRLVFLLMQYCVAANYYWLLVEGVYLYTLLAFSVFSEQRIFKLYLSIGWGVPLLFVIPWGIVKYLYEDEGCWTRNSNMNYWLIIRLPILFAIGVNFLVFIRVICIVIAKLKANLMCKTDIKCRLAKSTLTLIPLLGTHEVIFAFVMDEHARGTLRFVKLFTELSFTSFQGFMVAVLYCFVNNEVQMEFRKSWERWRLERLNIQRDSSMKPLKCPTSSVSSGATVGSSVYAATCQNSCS
# From the text: 2. Determination of the Concentration of Intracellular cAMP
# Since the concentration of intracellular cAMP can only be indirectly evaluated according to the above method for detecting the activation of reporter gene, it is necessary to determine the influence of active compounds on the concentration of intracellular cAMP by using a cAMP-determining kit, i.e., a functional re-screening.
# cAMP-determining kit (Molecular Devices Co., CatchPoint® Cyclic AMP kit);
# HEK 293/GLP-1R+Luc cell strain, in which GLP-1R and luciferase are stably expressed (self-made by National New Drugs Screening Center);
# HEK 293/GLP-1R+Luc cells were inoculated, in a quantity of 20,000/100 μl/well, into a 96-well culture plate, and cultured at 37° C. overnight. The candidate compounds S4P, S3-20-32, S3-11-14, S6-14 and S8 were respectively diluted to a certain concentration gradient, which were then added, in a quantity of […], into the above 96-well culture plate. The culture was performed under the conditions of 37° C., 5% CO2 for 10 min. Thereafter, the concentration of intracellular cAMP was determined according to the specification in CatchPoint® Cyclic AMP kit.
# The lower the reading was, the higher the concentration of intracellular cAMP was.
# [3] = biological target: T1, GLP-1R; assay: Antagonistic experiment with Exendin9-39 on S4P-induced reporter gene expression in HEK 293/GLP-1R+Luc cells; assay type: cell-based
# From the text: 3. Antagonistic Experiment with Exendin9-39
# In order to corroborate that the active compounds had receptor specificity with respect to their activating effects on reporter gene and intracellular cAMP, Exendin9-39 (Eur. J. Pharmacol, 1994, 269: 183-191; Metabolism 2004, 53:252-259.), a specific antagonist of GLP-1R, was used to validate whether it could antagonize the agonistic activity of the above representative compounds to GLP-1R.
# (§1) Cell strain: HEK 293/GLP-1R+Luc cell strain, in which GLP-1R and luciferase are stably expressed (self-made by National New Drugs Screening Center);
# HEK 293/GLP-1R+Luc cells were inoculated, in a quantity of 20,000/100 μl/well, into a 96-well culture plate, and cultured at 37° C. overnight with a DMEM culture medium containing 10% fetal bovine serum and 500 μg/ml G418. Exendin9-39 was diluted to a certain concentration gradient, which was then added, in a quantity of 1 μl/well, into the above 96-well culture plate. The culture was performed under the conditions of 37° C., 5% CO2 for 6 h. Thereafter, the activity of luciferase was detected according to the specification in the kit of Steady-Glo™ luciferase analytic system, and the reading was performed by using a Victor^2 plate-reading machine.
# [4] = biological target: T1, GLP-1R; assay: Testing the expression of reporter gene (luciferase under cAMP response element) in HEK 293/GLP-1R+Luc cells; assay type: cell-based; settings: 6 h
# From the text: 1. Testing the Expression of Reporter Gene
# GLP-1R is a G-protein coupling receptor. When GLP-1R binds to an agonist, the Ga subunit of G protein is activated to stimulate adenylate cyclase, which leads to the increase in the concentration of intracellular cAMP. Since the promoter region of proinsulin gene has a cAMP response element, cAMP promotes, after binding to this response element, the transcription of the proinsulin gene, thereby stimulating the expression and secretion of insulin (Diabetes, 2000, Vol. 49: 1156-1164). The experimental method employs a human embryonal nephric cell strain (HEK 293) which is stably transfected with the expression vector of GLP-1R gene and the expression vector of luciferase reporter gene under the regulation of cAMP response element, to detect its response to the candidate compound (Cell Biology, 1992, Vol. 89: 8641-8645; Proc. Natl. Acad. Sci. U.S.A. 1987, Vol. 84: 3434-3438). When screening the candidate compounds, the compounds that may induce the expression of luciferase reporter gene are regarded as having the activity of activating GLP-1R.
# as §1
# HEK 293/GLP-1R+Luc cells were inoculated, in a quantity of 20,000/100 μl/well, into a 96-well culture plate, and cultured at 37° C. overnight with a DMEM culture medium containing 10% fetal bovine serum and 500 μg/ml G418. […] The culture was performed under the conditions of 37° C., 5% CO2 for 6 h. Thereafter, the activity of luciferase was detected according to the specification in the kit of Steady-Glo™ luciferase analytic system, and the reading was performed by using a Victor^2 plate-reading machine.
# [5] = final concentration 0.00001 mg/ml
# [6] = final concentration 0.00003 mg/ml
# [7] = final concentration 0.0001 mg/ml
# [8] = final concentration 0.0003 mg/ml
# [9] = final concentration 0.001 mg/ml
# [10] = final concentration 0.003 mg/ml
molecule,measurement,setting,value
COc1cc(C2C(NC(=O)c3ccc(NC(=O)C4CCCC4)cc3)(C(=O)O)C(c3ccc(OC(=O)c4cccs4)c(OC)c3)C2(NC(=O)c2ccc(NC(=O)C3CCCC3)cc2)C(=O)O)ccc1OC(=O)c1cccs1 (centres unmarked) [Compound S4P],cytotoxicity in the reporter gene test,[1]; final concentration 0.03 mg/ml,cytotoxic
same,cytotoxicity in the reporter gene test,[1]; final concentration 0.1 mg/ml,cytotoxic
same,concentration of the intracellular cAMP (relative fluoresence intensity; lower reading = higher cAMP),[2]; [5],3536.618 RFU
same,concentration of the intracellular cAMP (relative fluoresence intensity; lower reading = higher cAMP),[2]; [6],2924.461 RFU
same,concentration of the intracellular cAMP (relative fluoresence intensity; lower reading = higher cAMP),[2]; [7],2985.794 RFU
same,concentration of the intracellular cAMP (relative fluoresence intensity; lower reading = higher cAMP),[2]; [8],2708.597 RFU
same,concentration of the intracellular cAMP (relative fluoresence intensity; lower reading = higher cAMP),[2]; [9],1910.855 RFU
same,concentration of the intracellular cAMP (relative fluoresence intensity; lower reading = higher cAMP),[2]; [10],2072.988 RFU
same,concentration of the intracellular cAMP (relative fluoresence intensity; lower reading = higher cAMP),[2]; final concentration 0.01 mg/ml,2310.616 RFU
same,concentration of the intracellular cAMP (relative fluoresence intensity; lower reading = higher cAMP),[2]; final concentration 0.03 mg/ml,2480.017 RFU
same,"antagonistic effect of Exendin9-39 on S4P (% reaction, taking the reaction of 3 μM S4P as 100%)",[3]; Exendin9-39 final concentration 0.03 nM,101.8115%
same,"antagonistic effect of Exendin9-39 on S4P (% reaction, taking the reaction of 3 μM S4P as 100%)",[3]; Exendin9-39 final concentration 0.1 nM,96.64%
same,"antagonistic effect of Exendin9-39 on S4P (% reaction, taking the reaction of 3 μM S4P as 100%)",[3]; Exendin9-39 final concentration 0.3 nM,83.84%
same,"antagonistic effect of Exendin9-39 on S4P (% reaction, taking the reaction of 3 μM S4P as 100%)",[3]; Exendin9-39 final concentration 1 nM,90.78%
same,"antagonistic effect of Exendin9-39 on S4P (% reaction, taking the reaction of 3 μM S4P as 100%)",[3]; Exendin9-39 final concentration 3 nM,72.84%
same,"antagonistic effect of Exendin9-39 on S4P (% reaction, taking the reaction of 3 μM S4P as 100%)",[3]; Exendin9-39 final concentration 10 nM,52.48%
same,"antagonistic effect of Exendin9-39 on S4P (% reaction, taking the reaction of 3 μM S4P as 100%)",[3]; Exendin9-39 final concentration 30 nM,32.33%
same,"antagonistic effect of Exendin9-39 on S4P (% reaction, taking the reaction of 3 μM S4P as 100%)",[3]; Exendin9-39 final concentration 100 nM,18.77%
same,"antagonistic effect of Exendin9-39 on S4P (% reaction, taking the reaction of 3 μM S4P as 100%)",[3]; Exendin9-39 final concentration 300 nM,15.97%
same,"antagonistic effect of Exendin9-39 on S4P (% reaction, taking the reaction of 3 μM S4P as 100%)",[3]; Exendin9-39 final concentration 1000 nM,27.97%
same,"antagonistic effect of Exendin9-39 on S4P (% reaction, taking the reaction of 3 μM S4P as 100%)",[3]; Exendin9-39 final concentration 3000 nM,14.57%
same,"antagonistic effect of Exendin9-39 on S4P (% reaction, taking the reaction of 3 μM S4P as 100%)",[3]; Exendin9-39 final concentration 10000 nM,15.22%
same,receptor specificity of the biological activity,[3]; antagonised by Exendin9-39,mediated by GLP-1R
same,"expression of the reporter gene (% reaction, taking the reaction of 30 nM GLP-1 as 100%)",[4]; final concentration 0.000003 mg/ml,5.157%
same,"expression of the reporter gene (% reaction, taking the reaction of 30 nM GLP-1 as 100%)",[4]; [5],5.151%
same,"expression of the reporter gene (% reaction, taking the reaction of 30 nM GLP-1 as 100%)",[4]; [6],5.276%
same,"expression of the reporter gene (% reaction, taking the reaction of 30 nM GLP-1 as 100%)",[4]; [7],5.697%
same,"expression of the reporter gene (% reaction, taking the reaction of 30 nM GLP-1 as 100%)",[4]; [8],10.19%
same,"expression of the reporter gene (% reaction, taking the reaction of 30 nM GLP-1 as 100%)",[4]; [9],22.23%
same,"expression of the reporter gene (% reaction, taking the reaction of 30 nM GLP-1 as 100%)",[4]; [10],35.55%
same,"expression of the reporter gene (% reaction, taking the reaction of 30 nM GLP-1 as 100%)",[4]; final concentration 0.01 mg/ml,41.19%
Exendin9-39 [reference compound],effect on the expression of reporter gene induced by S4P,"[3]; Table 3, FIG. 6","inhibit, in a dose-dependent manner"
